Source: patent publication US6472526B1, “Imidazole derivatives having an inhibitory activity for farnesyl transferase and process for preparation thereof” (LG Chemical Ltd., priority 1997, dated 2002)

Experiments:
Ras farnesyl transferase [1] = target: T1, Ras farnesyl transferase (Rattus norvegicus, UniProt Q02293+Q04631); assay: In vivo (cellular) inhibitory activity for Ras farnesyl transferase, Rat2 cell line transformed with fused protein of H-Ras substituted with polybasic lysine domain at C-terminus of K-Ras; format: cell-based; conditions: Rat2 cell line transformed with H-Ras fused with polybasic lysine domain of K-Ras C-terminus; concentration inhibiting 50% of farnesyl bonding; read-out: K-Ras CIC50
T1 construct: endogenous in cells; host or cells: Rat2 fibroblasts transformed with H-Ras or with an H-Ras/K-Ras C-terminus fusion
Description: (§1) In the present experiment, Rat2 cell line which expresses C-Harvey-Ras protein having transforming activity and Rat2 cell line (Korean patent application No. 97-14409) which is transformed with fused protein of H-Ras substituted with polybasic lysine domain at C-terminus of K-Ras were used. The experiment was performed by the modified Declue's method (Declue. J. E. et al., Cancer Research, 1991, 51, 712). Hereinafter, the experimental method will be described in more detail.
(§2) 3×10^5 cells of transformed Rat2 fibroblast cell line were sprayed on 60 mm cell cultivation dish and cultivated for 48 hours in a cell incubator at 37° C. and after 50% or more of density was reached, it was treated with the test compounds. The compound according to the present invention dissolved in dimethylsulfoxide (DMSO) was used. 1% concentration of dimethylsulfoxide was used in both control and test groups. After 4 hours from the treatment with the compound, methionine labeled with 150 μCi of radioactive isotope [^35S] per 1 ml of medium was added and after cultivating for 20 hours, the cells were, washed with physiological saline water. The cells were lysed using 1 ml of cold cell lysis buffer solution (50 mM of Sodium HEPES buffer solution containing 5mM of magnesium chloride, 1 mM of DTT, 1% NP 40, 1 mM of EDTA, 1 mM of PMSF, 2 μM of leupeptin, 2 μM of pepstatin A and 2 μM of antipain) and the supernatant wherein the cells were lysed was obtained by high-velocity centrifugation of 12,000 g×5 minutes. The amount of radioisotope in the supernatant was measured and standardized to obtain a quantitative result in immunoprecipitation reaction and then, Y13-259, a monoclonal antibody specifically binding to Ras protein (Furth, M. E. et al., J. Virol, 1982, 43, 294) was added and reacted for 15 hours at 4° C. Protein A(combined with goat anti-murine immunoglobulin antibody)-agarose suspension was added to the solution and reacted for 1 hour at 4° C. and then, to remove the unspecific binding product, immunoprecipitates were washed with a buffer solution (50 mM Tris chloride buffer solution containing 50 mM of sodium chloride, 0.5% of sodium dioxycolate, 0.5% of NP 40 and 0.1% of SDS). The precipitates were added to a buffer solution for electrophoresis and boiled and then, electrophoresis was performed using 13.5% of SDS polyacrylamide gel. After electrophoresis, the gel was fixed and dried. Then, the gel was exposed to X-ray film, developed printed. From the result of the experiment, intensities of band of in combined with or without farnesyl of Ras protein were measured, the concentration of the test compound inhibiting 50% of farnesyl bonding was defined as […], an in vivo Ras farnesyl transferase inhibitory activity.

Ras farnesyl transferase [2] = target: T2, Ras farnesyl transferase (Homo sapiens, UniProt P49354+P49356); assay: In vitro inhibitory activity for Ras farnesyl transferase, H-Ras substrate; format: biochemical; conditions: recombinant farnesyl transferase 4.5 nM, Ras substrate protein 1.5 μM, tritium-farnesylpyrophosphate 0.15 μM, 30 minutes at 37° C.; read-out: H-Ras IC50
T2 construct: made in house
Description: In the present experiment, Ras farnesyl transferase produced by genetic recombination techniques according to the improved Pompliano's method (Pompliano et al., Biochemistry, 1992, 31, 3800) was used, and Ras substrate (Ras-CVLS) protein described in Korean Patent Appln. No. 97-14409 was used after it has been purified according to the known method (see, Chung et al., Biochimica et Biophysica Acta, 1992, 278, 1129).
The enzyme reaction was performed in 50 μl of 50 mM Sodium HEPES buffer solution containing 25 mM of potassium chloride, 25 mM of magnesium chloride, 10 mM of DTT and 50 μM of zinc chloride. 1.5 μM of Ras substrate protein, 0.15 μM of tritium-farnesylpyrophosphate and 4.5 nM of farnesyl transferase were used.
More specifically, in the initial step, farnesyl transferase was added to the above buffer solution, reaction was maintained for 30 minutes at 37° C. and then the reaction was stopped by adding 1 ml of ethanol solution containing 1M HCl. The formed precipitates were adsorbed to GF/B filter using Hopper harvestor(Hopper #FH 225V) for filter-binding, washed with ethanol, and then radioactivity of the dried filter was measured using LKB β counter. Enzyme titer was measured in the unsaturated state of substrate where the concentrations of Ras substrate protein and farnesyl transferase have quantitative relationship. The compound according to the present invention dissolved in dimethyl sulfoxide (DMSO) was added to the reaction solution in an amount of less than 5% of the total reaction solution, and then the enzyme inhibitory activity thereof was measured. The enzyme inhibitory activity was represented by percentage of the amount of farnesyl incorporated into the Ras substrate protein in the presence of the test compound to that in the absence of the test compound. IC50 of the test compound was defined as the concentration at which 50% of the enzyme activity was inhibited.

Ras farnesyl transferase [3] = target: T1, Ras farnesyl transferase; assay: In vivo (cellular) inhibitory activity for Ras farnesyl transferase, Rat2 cell line which expresses C-Harvey-Ras protein; format: cell-based; conditions: Rat2 cell line expressing C-Harvey-Ras; concentration inhibiting 50% of farnesyl bonding of Ras protein; read-out: H-Ras CIC50
Description: as §1, §2

Ras farnesyl transferase [4] = target: T2, Ras farnesyl transferase; assay: In vitro inhibitory activity for Ras farnesyl transferase, K-Ras substrate; format: biochemical; conditions: in vitro farnesyl transferase assay, K-Ras; read-out: K-Ras IC50

| Molecule | IC50 (Ras farnesyl transferase [1]) | IC50 (Ras farnesyl transferase [2]) | IC50 (Ras farnesyl transferase [3]) | IC50 (Ras farnesyl transferase [4]) |
| --- | --- | --- | --- | --- |
| 1-(1-Decyl-1H-imidazol-5-yl)methyl-3-[N-(2-methoxyethyl)-N-methyl]carbamoyl-4-(naphthalen-1-yl-1H-pyrrole [Compound 119] | < 30000 nM | – | – | – |
| 3-[N-(2-Methoxyethyl)-N-methyl]carbamoyl-4-(naphthalen-1-yl)-1-(1-octyl-1H-imidazol-5-yl)methyl-1H-pyrrole [Compound 118] | < 40000 nM | – | – | – |
| 3-[N-(2-Methoxyethyl)N-methyl]carbamoyl-4-(naphthalen-1-yl)-1-(1-pentyl-1H-imidazol-5-yl)methyl-1H-pyrrole [Compound 117] | < 50000 nM | – | – | – |
| COCCN(C)C(=O)c1cn(Cc2cncn2Cc2ccc3c(c2)OCO3)cc1-c1cccc2ccccc12 [Compound 1, 3-[N-(2-Methoxyethyl)-N-methyl]carbamoyl-1-[1-(3,4-methylenedioxybenzyl)-1H-imidazol-5-ylmethyl]-4-(naphthalen-1-yl)-1H-pyrrole] | – | 1.1 nM | 25 nM | 3.5 nM |
| N#Cc1ccc(Cn2cncc2Cn2cc(C(=O)c3ccccc3)c(-c3cccc4ccccc34)c2)cc1 [Compound 75] | – | 5 nM | 200 nM | 160 nM |
| N#Cc1ccc(Cn2cncc2Cn2cc(C(=O)c3ccc(Br)cc3)c(-c3cccc4ccccc34)c2)cc1 [Compound 77] | – | 4 nM | 100 nM | 120 nM |
| CN1CCN(C(=O)c2cn(Cc3c[nH]cn3)cc2-c2cccc3ccccc23)CC1 [Compound 89] | 10000 to 100000 nM | 14 nM | – | 100 to 10000 nM |
| COCCN(C)C(=O)c1cn(Cc2cncn2Cc2ccc(C#N)cc2)cc1-c1cccc2ccccc12 [Compound 110, 1-[1-(4-Cyanobenzyl)-1H-imidazol-5-yl]methyl-3-[N-(2-methoxyethyl)-N-methyl]carbamoyl-4-(naphthalen-1-yl)-1H-pyrrole] | – | 0.6 nM | 8 nM | 1.5 nM |
| O=C(c1cn(Cc2cncn2Cc2ccc(Br)cc2)cc1-c1cccc2ccccc12)N1CCOCC1 [Compound 112, 1-[1-(4-Bromobenzyl)-1H-imidazol-5-yl]methyl-3-(morpholin-4yl)carbonyl-4-(naphthalen-1-yl)-1H-pyrrole] | – | 4 nM | 15 nM | 6 nM |
| COCCN(C)C(=O)c1cn(Cc2cncn2CCC(C)C)cc1-c1cccc2ccccc12 [Compound 120] | < 20000 nM | – | – | – |
| COCCN(C)C(=O)c1cn(Cc2cncn2CCOC)cc1-c1cccc2ccccc12 [Compound 121, 1-[1-(2-Methoxyethyl)-1H-imidazol-5-yl]methyl-3-[N-(2-methoxyethyl)-N-methyl]carbamoyl-4-(naphthalen-1-yl)-1H-pyrrole] | < 40000 nM | – | – | – |
| COCCCn1cncc1Cn1cc(C(=O)N(C)CCOC)c(-c2cccc3ccccc23)c1 [Compound 122] | < 30000 nM | – | – | – |
| CCOCCCn1cncc1Cn1cc(C(=O)N(C)CCOC)c(-c2cccc3ccccc23)c1 [Compound 123, 1-[1-(3-Ethoxypropyl)-1H-imidazol-5-yl]methyl-3-[N-(2-methoxyethyl)-N-methyl]carbamoyl-4-(naphthalen-1-yl)-1H-pyrrole] | < 40000 nM | – | – | – |
| COCCN(C)C(=O)c1cn(Cc2cncn2CCCOC(C)C)cc1-c1cccc2ccccc12 [Compound 124, 1-[1-(3-Isopropoxypropyl)-1H-imidazol-5-yl]methyl-3-[N-(2-methoxyethyl)-N-methyl]carbamoyl-4(naphthalen-1-yl)-1H-pyrrole] | < 20000 nM | – | – | – |
| CCOC(=O)c1nc(Cc2cnc[nH]2)sc1-c1cccc2ccccc12 [Compound 144, 4-Ethoxycarbonyl-2-(1H-imidazol-5-ylmethyl)-5-(naphthalen-1-yl)thiazole] | > 50000 nM | 380 nM | – | – |
| O=C(c1nc(Cc2cncn2Cc2ccc(Cl)cc2)sc1-c1cccc2ccccc12)N1CCOCC1 [Compound 146, 2-[1-(4-Chlorobenzyl)-1H-imidazol-5-ylmethyl]-4-(morpholin-4-yl)carbonyl-5-(naphthalen-1-yl)thiazole] | – | 90 nM | – | 10000 nM |
| COCCN(C)C(=O)c1nc(Cc2cncn2Cc2ccc(Cl)cc2)sc1-c1cccc2ccccc12 [Compound 147, 2-[1-(4-Chlorobenzyl)-1H-imidazol-5-ylmethyl]-4-[N-(2-methoxy)ethyl-N-methylcarbamoyl]-5-(naphthalen-1-yl)thiazole] | – | 2 nM | 50 nM | 30 nM |
| O=C(c1sc(Cc2cncn2Cc2ccc(Cl)cc2)nc1-c1cccc2ccccc12)N1CCOCC1 [Compound 149, 2-[1-(4-Chlorobenzyl)-1H-imidazol-5-ylmethyl]-5-(morpholin-4-yl)carbonyl-4-(naphthalen-1-yl)thiazole] | > 50000 nM | 5000 nM | – | > 50000 nM |
| COCCN(C)C(=O)c1sc(Cc2cncn2CC2CCN(C(=O)OCc3ccccc3)CC2)nc1-c1cccc2ccccc12 [Compound 151] | > 50000 nM | 4600 nM | – | > 50000 nM |
| O=C(OCc1ccccc1)N1CCC(Cn2cncc2Cn2cc(C(=O)N3CCOCC3)c(-c3cccc4ccccc34)n2)CC1 [Compound 158, 1-[1-(1-Benzyloxycarbonyl-piperidin-4-ylmethyl)-1H-imidazol-5-ylmethyl]-4-(morpholin-4-yl)carbonyl-3-(naphthalen-1-yl)-1H-pyrazole] | 30000 nM | 250 nM | – | 2000 nM |
| O=C(c1cn(Cc2cncn2Cc2ccc(Cl)cc2)nc1-c1cccc2ccccc12)N1CCOCC1 [Compound 161, 1-[1-(4-Chlorobenzyl)-1H-imidazol-5-ylmethyl]-4-(morpholin-4-yl)carbonyl-3-(naphthalen-1-yl)-1H-pyrazole] | – | 200 nM | – | 2000 nM |
| N#Cc1ccc(Cn2cncc2Cn2cc(C(=O)N3CCOCC3)c(-c3cccc4ccccc34)n2)cc1 [Compound 162, 1-[1-(4-Cyanobenzyl)-1H-imidazol-5-ylmethyl]-4-(morpholin-4-yl)carbonyl-3-(naphthalen-1-yl)-1H-pyrazole] | – | 250 nM | – | 2000 nM |
| Cn1cncc1Cn1cc(C(=O)N2CCOCC2)c(-c2cccc3ccccc23)n1 [Compound 163, 1-(1-Methyl-1H-imidazol-5-ylmethyl)-4-(morpholin-4-yl)carbonyl-3-(naphthalen-1-yl)-1H-pyrazole] | > 50000 nM | 150 nM | – | 10000 nM |
